The subject of experiment [1] is Aβtotal from primary murine cortical neurons. In words: Aβtotal immunoprecipitation, primary murine cortical neurons infected with APP695. The experiment is classed as cell-based. The note with it: primary murine cortical neurons infected with APP695, below 250 μM (5-50 μM). As to the method:
(§1) The cDNA coding for human APP695 is cloned in the Smal site of pSFV-1 as described previously (Simons et al., J. Neurosci. 16:899-908, 1996; Tienari et al., Embo. J. 15:5218-29, 1996). PSFV-1/huAPP695 constructs are linearized,with SpeI and run-off transcription using SP6 polymerase is performed to produce mRNA. The transcribed mix of APP and pSFV-helper are cotransfected into BHK cells by electroporation to yield recombinant SFV (Olkkonen et al., J. Neurosci. Res. 35:445-51, 1993). BHK cells are grown in DMEM/F12 supplemented with 5% fetal calf serum, 2 mM L-glutamine, 100 U/ml penicillin, and […] streptomycin. Twenty-four hours after transfection, the culture supernatant containing infective recombinant SFV is collected. Aliquots are snap-frozen in liquid nitrogen and stored at −70° C. until use.
All experiments are conducted on murine primary cortical neurons derived from E14 embryos according to established procedures (Annaert et al., J. Cell Biol. 147:277-294, 1999; Cupers et al., J. Cell Biol. 154:731-40, 2001; De Strooper et al., Nature 391:387-90, 1998). […]
Data are expressed as a percent of control and represent the mean±SD with n=6 and statistical significance determined by ANOVA with a Tukey's post hoc test at **p<0.01, ***p<0.001.

Experiment [2] concerns Aβ42 from primary murine cortical neurons. In words: Aβ42 sandwich ELISA, primary murine cortical neurons infected with APP695. The experiment is classed as cell-based. The settings on record: primary murine cortical neurons infected with APP695, 5 μM, p<0.01, n=6. As for the experimental part: as §1, with “use. […]” for “use.”
The levels of the longer Aβ42 peptide are quantified in both the conditioned media and cell extracts using a sandwich ELISA test (De Strooper et al., Nature 391:387-90, 1998; Vanderstichele et al., Amyloid. 7:245-58, 2000). […] Finally HRP substrate is added and the colorimetric reaction is quantitated spectrophotometrically using a Victor 2 (Wallac) equipped with a 450 nm filter. […] The Aβ42 concentrations in the samples are finally calculated based on the Aβ42 standards nonlinear regression equation and using Mathematica 4.1 software package (Wolfram Research, Champaign, Ill.). […]
For orientation: ELISA stands for enzyme-linked immunosorbent assay.

Structures are written as SMILES.

Turning to `Cc1cccc(Nc2cc(Cl)nc(SCC(=O)O)n2)c1C` [pirinixic acid], the “effect on Aβtotal” value in experiment [1] was “no significant effect”. In experiment [2], the “decrease in Aβ42” value was determined as 20%.
